Values quoted from earlier work, collected in US12336538B2, “Method for controlling rats and mice with cholecalciferol baits” (priority 2014, dated 2025).

Tests used:
bait shyness = details: Gould and Holmes, Pest Manag. Sci. 2008

| SMILES | suitability to control a rat population (rat population; 0.1% cholecalciferol alone, only one day of feeding, Posipischil and Schnorbach 1994) | suitability to control rat population (rat population; cholecalciferol alone, Kocher and Navjot 2013) | prevention of bait shyness to cholecalciferol (bait shyness) |
| --- | --- | --- | --- |
| C=C1CC[C@H](O)C/C1=C/C=C1\CCC[C@]2(C)[C@@H]([C@H](C)CCCC(C)C)CC[C@@H]12 [cholecalciferol, Cholecalciferol] | not suitable to control a rat population | not suitable to control rat population | – |
| COc1ccc2c(c1)[C@]13CCCC[C@@H]1[C@H](C2)N(C)CC3 [dextromethorphan] | – | – | ineffective |
